Experimental findings from patent publication US20190256509A1, “HISTONE DEMETHYLASE INHIBITORS” (CHRYSALIS, INC., priority 2016, published 2019) are described below.

In the assay the target is T1, KDM5B enzyme (Homo sapiens, UniProt Q9UGL1).
T1 construct: Reaction Biology Corp (named for the assay, not expressly for the enzyme)
Description: KDM5B HTRF (TR-FRET) demethylase inhibition assay. The class given is biochemical. Conditions: 1.2 nM KDM5B, 30 nM Biotin-H3K4Me3 1-21 substrate, 10 point dose-response. The procedure:
Ten point dose-response curves for the compounds of Examples 1-135 were determined using a homogeneous time resolved fluorescence (HTRF) assay (Reaction Biology Corp, Malvern, Pa.). This assay combines fluorescence resonance energy transfer (FRET) with time resolve (TR) measurements (TR-FRET). The KDM5B α-ketoglutarate-dependent demethylase activity is calculated by measuring demethylation of a biotin labeled histone tri-methylated H3K4 substrate using an europium-cryptate (Eu)-labeled antibody donor specific for dimethylated histone H3K4 and a Streptavidin-XL665 acceptor that binds to the biotin group of substrate, and detecting FRET by exciting the reaction mixture at 320 nm and reading dual emissions at 615 nm and 665 nm.
Briefly, compounds disclosed herein were solubilized in DMSO and a series of 10, three-fold serial dilutions were made for each compound in 100% DMSO. The initial starting concentration for the serial dilutions of each compound was 10 μM or 100 μM. Control samples lacking compound, KDM5B enzyme or various reaction components also were prepared and processed in parallel with compound test samples.
An aliquot of each serial dilution of test compound was added to a 384 well plate (Corning Cat #3572) containing 1.2 nM KDM5B enzyme suspended in 50 mM Hepes, pH7.5, 50 mM NaCl, 0.01% Tween 20, 0.1% BSA, and 1% DMSO (final concentrations) in a 10 microliter reaction volume using a LABCYTE ECHO liquid handler. The samples were mixed, subjected to centrifugation and the plate was pre-incubated at room temperature for 15 minutes (min), to which 30 nM Biotin-H3K4Me3 1-21 substrate (Anaspec, Freemont Calif., Cat #64192), 20 μM Fe(II) and 20 μM α-ketoglutarate co-factors, and 100 μM Ascorbate were added to initiate the enzymatic reaction. The reaction mixture was incubated at room temperature for 45 minutes. A 10 μl aliquot of a detection mixture of Eu-labeled anti-histone H3K4Me2 antibody (CisBIO, Bedford Mass., Cat #610AXLB) and Streptavidin-XL665 (CisBIO, Bedford Mass., Cat #610 SAXLB) in 200 mM potassium fluoride and 10 mM EDTA was added and kinetic measurements were read at 5 minute intervals for a period of 30 minutes using an Envision Multiplate Reader (PerkinElmer Model 2102; excitation at 320 nm and emission reads at 615 nm and 665 nm). The IC50 value for each compound was determined from the 665/615 ratio obtained for each 10 point dose-response curve using GraphPad Prism 4 software with a sigmodial dose response.

Molecules are shown by their SMILES. pIC50: −log10 of the molar value. Bounds are passed on as bounds.

T1 sequence (Q9UGL1 whole entry): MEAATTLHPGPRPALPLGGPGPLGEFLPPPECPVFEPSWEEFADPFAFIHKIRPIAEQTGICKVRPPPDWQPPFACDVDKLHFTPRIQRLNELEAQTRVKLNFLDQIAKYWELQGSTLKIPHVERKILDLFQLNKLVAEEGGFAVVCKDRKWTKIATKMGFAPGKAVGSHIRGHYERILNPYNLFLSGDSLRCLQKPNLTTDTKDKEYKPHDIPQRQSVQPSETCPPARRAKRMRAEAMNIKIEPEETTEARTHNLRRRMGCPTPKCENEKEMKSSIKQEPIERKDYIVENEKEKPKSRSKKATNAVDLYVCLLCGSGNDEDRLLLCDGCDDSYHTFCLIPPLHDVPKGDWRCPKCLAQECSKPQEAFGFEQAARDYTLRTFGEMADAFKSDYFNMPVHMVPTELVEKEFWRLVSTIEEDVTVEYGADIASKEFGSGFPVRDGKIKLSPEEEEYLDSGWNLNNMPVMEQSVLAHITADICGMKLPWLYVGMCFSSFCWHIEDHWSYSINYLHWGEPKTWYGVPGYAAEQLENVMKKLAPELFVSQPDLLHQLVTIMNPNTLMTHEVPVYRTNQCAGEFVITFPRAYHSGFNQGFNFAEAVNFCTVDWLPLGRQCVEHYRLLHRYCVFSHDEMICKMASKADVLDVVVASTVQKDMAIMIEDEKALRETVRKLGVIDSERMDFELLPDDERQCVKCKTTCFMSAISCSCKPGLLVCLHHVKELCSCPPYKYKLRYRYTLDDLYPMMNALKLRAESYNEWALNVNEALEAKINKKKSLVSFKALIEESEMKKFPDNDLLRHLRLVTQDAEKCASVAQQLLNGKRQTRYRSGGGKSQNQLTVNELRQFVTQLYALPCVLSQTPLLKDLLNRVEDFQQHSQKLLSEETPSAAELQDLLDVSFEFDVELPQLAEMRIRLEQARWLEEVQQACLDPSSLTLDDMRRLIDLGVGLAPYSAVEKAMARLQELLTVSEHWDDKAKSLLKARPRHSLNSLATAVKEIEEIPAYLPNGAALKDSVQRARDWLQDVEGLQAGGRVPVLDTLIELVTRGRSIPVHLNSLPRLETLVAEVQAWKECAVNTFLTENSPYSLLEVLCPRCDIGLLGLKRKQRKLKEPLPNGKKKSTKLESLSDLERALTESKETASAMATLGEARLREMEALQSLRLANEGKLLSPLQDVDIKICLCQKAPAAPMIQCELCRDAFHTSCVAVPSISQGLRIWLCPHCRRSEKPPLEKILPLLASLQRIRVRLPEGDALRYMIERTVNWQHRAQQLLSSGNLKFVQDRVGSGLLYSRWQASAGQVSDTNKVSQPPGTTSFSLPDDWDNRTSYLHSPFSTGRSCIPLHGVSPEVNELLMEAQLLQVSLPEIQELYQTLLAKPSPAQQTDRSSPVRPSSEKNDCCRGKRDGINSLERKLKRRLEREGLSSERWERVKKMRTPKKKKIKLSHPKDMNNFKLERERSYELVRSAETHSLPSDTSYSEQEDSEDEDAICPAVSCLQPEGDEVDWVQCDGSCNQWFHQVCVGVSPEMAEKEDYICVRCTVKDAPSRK

`COc1cc(CNc2ccc3nccn3c2C(=O)O)ccc1O` [Example 75]: the pIC50 – broadly, the negative decadic logarithm of the IC50, by convention in mol/L – was less than 6.00.

Regarding `Cn1c(=O)n(C)c2cc(CNc3ccc4nccn4c3C(=O)O)ccc21` [Example 76], the pIC50 was 6.00 to 6.30. For the compound `O=C(O)c1c(NCc2ccc3c(c2)OC(F)(F)O3)ccc2nccn12` [Example 77], the pIC50 was 6.00 to 6.30.

The compound `O=C(O)c1c(NCc2ccc(-n3ccnc3)cc2)ccc2nccn12` [Example 78] showed a pIC50 of no less than 6.30. As to `O=C(O)c1c(NCc2cccc(F)c2F)ccc2nccn12` [Example 79], the negative-log IC50 (pIC50) is less than 6.00. `O=C(O)c1c(NCc2ccc3c(c2)OCCO3)ccc2nccn12` [Example 80]: the pIC50 is less than 6.00. The compound `O=C(O)c1c(NCc2ccc(F)cc2F)ccc2nccn12` [Example 81] had a pIC50 of 6.00 to 6.30.

Consider `O=C(O)c1c(NCc2cc(F)ccc2F)ccc2nccn12` [Example 82], for which the pIC50 is 6.00 to 6.30. Compound `O=C(O)c1c(NCc2ccccc2-n2cccn2)ccc2nccn12` [Example 83] had a pIC50 of no less than 6.30. Turning to `CS(=O)(=O)c1ccccc1CNc1ccc2nccn2c1C(=O)O` [Example 84], the pIC50 was no less than 6.30.

In turn, `O=C(O)c1c(NCc2ccccc2F)ccc2nccn12` [Example 85] gave a pIC50 of less than 6.00. `O=C(O)c1c(NCc2ccccc2N2CCOCC2)ccc2nccn12` [Example 86] had a pIC50 of less than 6.00. For the compound `O=C(O)c1c(NCc2cc(F)c(F)c(F)c2)ccc2nccn12` [Example 87], the pIC50 is less than 6.00. As for `CS(=O)(=O)c1cccc(CNc2ccc3nccn3c2C(=O)O)c1` [Example 88], the pIC50 is no less than 6.30. With `O=C(O)c1c(NCc2cccc(OC(F)(F)F)c2)ccc2nccn12` [Example 89] the figure was less than 6.00; with `O=C(O)c1c(NCc2ccc(F)c(Br)c2)ccc2nccn12` [Example 90], less than 6.00; with `O=C(O)c1c(NCc2ccccc2Cl)ccc2nccn12` [Example 91], less than 6.00. In turn, `COc1c(F)cccc1CNc1ccc2nccn2c1C(=O)O` [Example 92] gave a pIC50 of 6.00 to 6.30. For the compound `O=C(O)c1c(NCc2cc(F)cc(C(F)(F)F)c2)ccc2nccn12` [Example 93], the pIC50 is less than 6.00.

Regarding `COc1cccc(CNc2ccc3nccn3c2C(=O)O)c1` [Example 94], the pIC50 was no less than 6.30. In turn, `O=C(O)c1c(NCc2ccc(OC(F)(F)F)cc2)ccc2nccn12` [Example 95] gave a pIC50 of less than 6.00. With `CN(C)c1ccc(CNc2ccc3nccn3c2C(=O)O)cc1` [Example 96], the pIC50 was less than 6.00. `COc1cc(CNc2ccc3nccn3c2C(=O)O)ccc1F` [Example 97]: the negative logarithm of the IC50 (pIC50) is 6.00 to 6.30. `O=C(O)c1c(NCc2ccc3c(c2)CCO3)ccc2nccn12` [Example 98] showed a pIC50 of less than 6.00.

`O=C(O)c1c(NCc2cc(Cl)c(F)cc2F)ccc2nccn12` [Example 99] had a pIC50 of less than 6.00. In turn, `CC(=O)N(C)c1cccc(CNc2ccc3nccn3c2C(=O)O)c1` [Example 100] showed a pIC50 of 6.00 to 6.30.

The compound `Cc1nc2cc(C(O)c3ccccc3)ccn2c1C(=O)O` (centres unmarked) [Example 101] showed a pIC50 of less than 6.00. `O=C(O)c1cnc2cc(C(O)c3ccccc3)ccn12` (centres unmarked) [Example 102] showed a pIC50 of less than 6.00. Take `CC(O)c1ccn2c(C(=O)O)cnc2c1` (centres unmarked) [Example 103]: the pIC50 was less than 6.00. Take `O=C(O)c1cnc2cc(Oc3ccccc3)ccn12` [Example 104]: the pIC50 was less than 6.00.

As to `O=C(O)c1cnc2cc(Oc3ccc4ccncc4c3)ccn12` [Example 105], the pIC50 is less than 6.00. The compound `CC(O)c1cc(C(=O)O)n2ccnc2c1` (centres unmarked) [Example 106] showed a pIC50 of less than 6.00. The same measure for `COc1ccccc1Oc1cc(C(=O)O)n2ccnc2c1` [Example 108]: less than 6.00; for `O=C(O)c1cc(Oc2ccc3ccncc3c2)cc2nccn12` [Example 109]: less than 6.00. With `COc1cc(Cl)ccc1CNc1ccc2nccn2c1C#N` [Example 110] the figure was less than 6.00; with `COc1cc(Cl)ccc1CNc1ccc2nccn2c1-c1nn[nH]n1` [Example 111], less than 6.00; with `COc1ccc(Cl)cc1CNc1ccc2ncc(C(=O)O)n2c1` [Example 112], less than 6.00. In the case of `O=C(O)c1cc(-c2cn(Cc3ccc(Cl)cc3)cn2)cc2nccn12` [Example 113], the pIC50 was no less than 6.30. `COc1ccc(Cl)cc1CNc1ccc2nc(C)cn2c1C(=O)O` [Example 114] showed a negative logarithm of the IC50 (pIC50) of less than 6.00. For the compound `O=C(O)c1c(NCC2CCCc3cc(Oc4ccccc4)ccc32)ccc2nccn12` (centres unmarked) [Example 115], the pIC50 was less than 6.00. For `COc1cc(C)ccc1-c1ccc2ncc(C(=O)O)n2c1` [Example 116], the pIC50 is less than 6.00.

The compound `COc1ccc(Cl)cc1CNc1cc(C(=O)O)n2ccnc2c1` [Example 117] had a pIC50 of less than 6.00. The compound `COc1cc(Cl)ccc1CNc1ccc2ncc(C(=O)O)n2c1` [Example 118] gave a pIC50 of less than 6.00. With `COc1cc(Cl)ccc1CNc1ccc2nc(C)cn2c1C(=O)O` [Example 119] the figure was less than 6.00.

On to `COc1cc(Cl)ccc1COc1ccc2nccn2c1C(=O)O` [Example 120], for which the pIC50 is less than 6.00. With `O=C(O)c1c(NCc2cccc3c2CNCC3)ccc2nccn12` [Example 121] the figure was less than 6.00. With `COc1cc(Cl)ccc1CNc1cc(C(=O)O)n2ccnc2c1` [Example 122] the figure was less than 6.00; with `COc1cc(Cl)ccc1COc1cc(C(=O)O)n2ccnc2c1` [Example 123], less than 6.00; with `CCN1CCN(c2ccc(CNc3ccc4nccn4c3C(=O)O)c3c2CCCC3)CC1` [Example 124], less than 6.00. `COc1ccc(-c2cccc(CNc3ccc4nccn4c3C(=O)O)c2)cc1` [Example 125] had a pIC50 of less than 6.00.

With `O=C(O)c1c(NCc2cccc(-c3cccnc3)c2)ccc2nccn12` [Example 126], the pIC50 was 6.00 to 6.30.

For `Cn1nccc1-c1cccc(CNc2ccc3nccn3c2C(=O)O)c1` [Example 127], the pIC50 is no less than 6.30. For `N#Cc1cccc(CNc2ccc3nccn3c2C(=O)O)c1` [Example 128], the pIC50 is less than 6.00. `COc1cc(Cl)ccc1OCc1cc(C(=O)O)n2ccnc2c1` [Example 129] had a pIC50 of no less than 6.30. Take `COc1cc(CN2CCC(NCCc3ccccc3)CC2)ccc1CNc1ccc2nccn2c1C(=O)O` [Example 130]: the pIC50 is 6.00 to 6.30. As for `CN(C)Cc1ccccc1CNc1ccc2nccn2c1C(=O)O` [Example 131], the pIC50 was less than 6.00.

On to `O=C(O)c1cc(OCCN2CCC(c3cc(Cl)cc(Cl)c3)CC2)cc2nccn12` [Example 132], for which the pIC50 is less than 6.00. With `CN(Cc1ccc(F)cc1)Cc1ccc(Oc2cc(C(=O)O)n3ccnc3c2)cc1` [Example 134] the figure was less than 6.00; with `O=C(O)c1cc(CCCN2CCC(c3cc(Cl)cc(Cl)c3)CC2)cc2nccn12` [Example 135], no less than 6.30.
